Assay results published in patent publication US20180228897A1, “Compositions for Vapor Phase Delivery of Active Compounds, Methods of Making and Using Same, and Kits Comprising Same” (Atmovita, LLC, priority 2015, published 2018).
In brackets after ≈: the same amount, converted by molar mass. Read-outs that look alike come from different tables or passages of the source. One block for each compound: values may come before it.

Key:
Assay type in all cases: physicochemical
[1] = Increase in solubility of active compounds in the present compositions
Description: It is advantageous to take measures to increase the solubility of an active compound or active compounds within a composition that includes components that serve as excipients such that true solubilization of the compound(s) occurs and the activity of the active compounds are retained upon transition to the vapor phase. The present disclosure is based on the result that the solubility of active compounds can be increased by surprising and unexpected amounts.

[2] = Folate solubility in glycerin/2,3 butane diol stock compositions with co-solutes (incremental addition, heat gun, stirring)
Procedure: Folate. Folate and biotin are the two most difficult to dissolve B vitamins. Folate solubility enhancement was provided by addition of beta-cyclodextrin.
The solubility enhancement from mannitol/biotin alone was tested next. […] This is major improvement over most polar solvents (0.0016 g/L of water at 25° C.).
First the mannitol/biotin powder was mixed with 0.004 g of folate. This was added to the test tube followed by the liquid. It was stirred vigorously. Then it was heated with a heat gun until clear and no folate was suspended. […] All the liquid was moved to another test tube and the precipitate remained. Then folate was incrementally added (about 1 mg) and the solution was stirred, followed by heating** until it became clear. It would take at least 3 minutes of heating for it to become clear but as more folate was added, at least 4 minutes of heating were needed. This is how the original solution was formed. Over the course of several days there was no further precipitate or increase in viscosity. ** all heating was done with the yellow heat gun on the lowest setting (240° F.)
While heating and stirring the lid popped off and 0.75 ml of solution spilled out. Even accounting for folate lost in the spill, currently at least 8 mg of folate have been dissolved in 2.75 ml and the solution is completely clear. Heating the solution caused the lid to pop so it must be removed after about 1 minute and 30 seconds of heating prior to any further heating. It is also crucial for the solution to have been flipped upside down, preferably while warm. The solution must not be heated while flipped as this may cause a spill.
The original solution still has less much viscosity but also a slightly lower concentration of folate. It appears that somewhere beyond 8 mg folate/[…] of solution it becomes supersaturated, resulting in a thick gel upon settling and cooling. […] As long as supersaturation followed by settling is avoided, the solution will remain liquid. Another option is to study the effect of precipitation inhibitors or the sonicator to further boost solubility without increasing viscosity.
Testing was also done with only stock, stock+water and stock+ethanol but having both water and ethanol is crucial to the process. […] Despite having separated the liquid from the precipitate which was nearly all biotin/mannitol, the powder still played a role in improving folate solubility. […] The following composition (3 ml stock+0.25 ml water+0.25 ml ethanol+0.009 g of biotin) dissolved 11.2 mg of folate but became extremely viscous.
According to research on drug solubility there is a class of molecules known as hydrotropes (also known as chaotropes, […]). They reduce hydrophobic forces between non-polar solutes in polar solvents. One such molecule is niacinamide (vitamin B3 amide). These hydrotropes are planar and are either very polar or have nonpolar and polar sides like surfactants but shorter. This experiment was repeated with niacinamide as a cosolute and with a combination of B3 amide and Biotin. The biotin and B3 amide were added along with 4 mg of folate (and crushed together) wet into dry to the solution. The remaining folate was added incrementally along with heating and stirring. […] (2.5 ml stock+0.5 ml water+0.5 ml ethanol+0.0221 g of B3 amide) dissolved approximately 11 mg of folate and a small amount of precipitate. (2.5 ml stock+0.5 ml water+0.5 ml ethanol+0.0221 g of B3 amide+0.090 g pure biotin) dissolved approximately 11.4 mg of folate without precipitate. Unfortunately both solutions were extremely viscous after a few days.
Eventually the B3 amide and biotin cosolute solution was prepared using “reverse stock” instead of regular with the goal of lowering viscosity. The reverse stock is a solution of 3:7 mol glycerin and 2,3 butane diol. Initially this made folate precipitate so additional glycerin was added to achieve a 1:1 mol ratio of glycerin to 2,3 butane diol.

[3] = Trans resveratrol solubility in stock with solvents and co-solutes (incremental addition, heat gun)
Procedure: The initial approach was to test non polar solvents and their effectiveness with ethanol. This included pure stock as a control, carvone, and combinations of those solvents with ethanol. The following solvents were prepared: Control—3.5 ml of pure stock, 1-1.75 ml of stock+1.75 ml of carvone+0.2 ml of 0.01 mol NaOH, 2-3.5 ml of pure carvone, 3-3 ml of stock+0.5 ml of ethanol, 4-3 ml of carvone+0.5 ml of ethanol.
Solution 1 became biphasic and cloudy. The control and solution 4 have approximately the same solubility of TR. […] Solvent was added until the TR was dissolved which occurred at 60 mg/ml of stock. This original solution was split into 5 test tubes of 1 ml each with about 0.06 g of TR.
The following solutions were made: 1—adding […] of carvone (equimolar with TR, 0.000263 mol of each) 2—adding 0.175 ml of ethanol 3-0.235 ml of carvone and 0.1 ml of ethanol. Solution 1 became cloudy because the carvone is immiscible with the stock. Several attempts to fix this were made using of ethanol and B3 amide as hydrotropes but it had no effect.
Next co-solutes were used along with the TR in stock solution. 0.000263 mol of the following were dissolved along with TR in 3 ml stock: 1-niacin, 2-caffeine, 3-gallic acid, 4-salicylic acid, 5-thiamine, 6-niacinamide, and 7-pantothenic acid. Two additional samples were prepared of 0.01 g biotin (8) and 0.04 g of -pyridoxine HCl (9). Each solution consisted of the stated amount of co-solute and 3 ml of stock. The following amounts of TR (which was added incrementally (30-40 mg) and heated for 3-4 minutes by heat gun) created the following:
To conduct further testing 0.5 ml of ethanol was added to the solutions with niacin, biotin, thiamine, and salicylic acid. The successful B3 amide solution was split into two solutions of (1.625 and 1.375 ml) with 0.25 ml of ethanol being added to the 1.375 ml solution. The results were as follows:
There was also testing with multiple solutes in 3 ml of stock:
Currently piperazine hexahydrate is being tested as it is another hydrotrope. […] It may work better with other co-solutes or ethanol.

[4] = Preparation of compositions (Example 3): appearance and stability of the solution; settings: for appearance of composition: heated at 175° C.
[5] = Folate solubility in glycerin/2,3 butane diol stock compositions with co-solutes (incremental addition, heat gun, stirring); settings: 2.5 ml stock+0.15 ml water+0.15 ml ethanol+0.01135 g beta-cyclodextrin+0.0182 g biotin/mannitol+0.00441 folate, without heating
[6] = Solubility of piracetam and pantothenic acid in stock; settings: glycerin/2,3 butane diol stock, organic solvent or mixture

increase in solubility [1]: ≤ 15,000%
amount of folate dissolved ([2]; 0.0221 g B3 amide, 0.0047 mg biotin, 3.5 ml equimolar glycerin and 2,3 butane diol, 0.5 ml water, 0.5 ml ethanol): 9 mg
amount of folate dissolved ([2]; 2.5 ml stock+0.5 ml water+0.5 ml ethanol+0.0221 g B3 amide+0.090 g pure biotin, without precipitate): approximately 11.4 mg
amount of folate dissolved ([2]; 2.5 ml stock+0.5 ml water+0.5 ml ethanol+0.0221 g B3 amide, small amount of precipitate): approximately 11 mg
amount of folate dissolved ([2]; 3 ml stock+0.25 ml water+0.25 ml ethanol+0.009 g biotin): 11.2 mg
amount of folate dissolved ([2]; 3 ml stock+0.25 ml water+0.25 ml ethanol+0.0182 g biotin/mannitol): approximately 0.008 g
amount of folate dissolved ([2]; liquid only part of the same solution, no mannitol/biotin powder): < 1.6 mg
amount of folate dissolved ([2]; repeat experiment, in 2.75 ml of the biotin/mannitol solution, completely clear): at least 8 mg
concentration beyond which solution becomes supersaturated (thick gel on settling and cooling) ([2]; stock+water+ethanol+biotin/mannitol solution): > 8 mg folate/3.5 ml of solution
dissolution in carvone solvents ([3]; solution 2 (3.5 ml pure carvone) and solution 4 (3 ml carvone+0.5 ml ethanol), without heating): easily dissolved
appearance of composition ([4]; 8 mg folic acid, 22.1 mg nicotinamide, 4.7 mg biotin in 3.5 ml (0.5 mol glycerin/0.5 mol propylene glycol), 0.5 ml water, 0.5 ml ethanol, flavors): clear solution with flavor
Compound: Nc1nc2ncc(CNc3ccc(C(=O)N[C@@H](CCC(=O)O)C(=O)O)cc3)nc2c(=O)[nH]1 [folate, folic acid]
appearance of solution [5]: clear with some orange (folate) precipitate on the bottom of the vial

Compound: C=C1CC[C@H](O)C/C1=C/C=C1\CCC[C@]2(C)[C@@H]([C@H](C)CCCC(C)C)CC[C@@H]12 [Vitamin D3]
increase in solubility ([1]; in the present compositions, D3 with ß-propoxy cyclodextrin): 22,000%
appearance of composition ([4]; 5 mg Vitamin D3, 15 mg βcyclodextrin, 15 mg cinnamic acid, 15 mg ethyl vanillin in 2.5 ml stock+1.0 ml water): clear solution with flavor

increase in solubility [1]: 600%
concentration of final translucent solution ([4]; water, 70% glycerin/30% 2,3 butane diol (v/v), 0.01M NaOH, 95% EtOH, room temperature): ~0.21 M
Compound: cyanocobalamin [B12]

solubility [6]: 36.5 mg/mL (≈ 257 mM)
appearance of composition ([4]; 0.2 grams piracetam in 1.5 ml stock, 2.0 ml fruit flavored vodka, 0.1 ml flavored glycerin): clear solution with flavor
Compound: NC(=O)CN1CCCC1=O [Piracetam, piracetam]

amount of TR added ([3]; 0.000263 mol piperazine.6H2O in 1 ml stock): 0.0731 g
amount of TR dissolved ([3]; 0.0100 g B7+3.5 ml stock+0.5 ml ethanol): 0.2606 g
amount of TR dissolved ([3]; 0.0324 g B3+3.5 ml stock+0.5 ml ethanol): 0.2316 g
TR dissolved per ml ([3]; 0.048175 B3 amide+1.375+0.25 ml ethanol): 0.125 g TR/ml
TR dissolved per ml ([3]; 0.048175 B3 amide+1.625 ml): 0.125 g TR/ml
amount of TR dissolved ([3]; 0.0698 g B1+3.5 ml stock+0.5 ml ethanol): 0.2333 g
amount of TR added ([3]; 3 ml stock + 0.000263 mol caffeine (2)): 0.0131 g
amount of TR added ([3]; 3 ml stock + 0.000263 mol gallic acid (3)): 0.1784 g
amount of TR added ([3]; 3 ml stock + 0.000263 mol niacin (1)): 0.1776 g
amount of TR added ([3]; 3 ml stock + 0.000263 mol niacinamide (6)): 0.1738 g
amount of TR added ([3]; 3 ml stock + 0.000263 mol pantothenic acid (7)): 0.0131 g
amount of TR added ([3]; 3 ml stock + 0.000263 mol salicylic acid (4)): 0.1784 g
amount of TR added ([3]; 3 ml stock + 0.000263 mol thiamine (5)): 0.1808 g
amount of TR added ([3]; 3 ml stock + 0.01 g biotin (8)): 0.1733 g
amount of TR added ([3]; 3 ml stock + 0.04 g pyridoxine HCl (9)): 0.1859 g
appearance of solution ([3]; 3 ml stock + biotin (8), 0.1733 g TR): tiny amount of suspension
appearance of solution ([3]; 3 ml stock + caffeine (2), 0.0131 g TR): immediately precipitated
appearance of solution ([3]; 3 ml stock + niacin (1), 0.1776 g TR): slight visible suspension of particles
appearance of solution ([3]; 3 ml stock + pantothenic acid (7), 0.0131 g TR): cloudy solution without precipitate
amount of TR dissolved ([3]; 3 ml stock, 0.03175 g B3 amide+0.069 g B1+0.006352 g B7, footnote: immediately precipitate): 0.025 g
amount of TR dissolved ([3]; 3 ml stock, 0.0482 g B3 amide+0.03 g B1): 0.1844 g
amount of TR dissolved ([3]; 3 ml stock, 0.0482 g B3 amide+0.09 g B7, footnote: immediately precipitate): 0.025 g
solubility ([3]; glycerin/2,3 butane diol stock (70:30 mol), organic solvent or mixture, thermodynamic from solid, pure stock (70:30 mole glycerin:2,3 butane diol), read-out: solubility in stock): 60 mg/mL
solubility ([3]; organic solvent or mixture, thermodynamic from solid, flavored glycerin (with 2,3 butane diol added) instead of regular stock, read-out: solubility): 45 mg/mL
solubility ([3]; solution 2: 1 ml TR stock solution + 0.175 ml ethanol): 60 mg/mL
Compound: Oc1ccc(/C=C/c2cc(O)cc(O)c2)cc1 [TR, Trans-resveratrol]
appearance of solution after a few days ([3]; 0.000263 mol piperazine.6H2O in 1 ml stock, 0.0731 g TR): the solution became dark and there was a small amount of precipitate
appearance of solution ([3]; 3 ml stock + gallic acid (3), 0.1784 g TR): clearly visible suspension and precipitate on bottom
appearance of solution ([3]; 3 ml stock + niacinamide (6), 0.1738 g TR): totally clear solution with low viscosity
appearance of solution ([3]; 3 ml stock + pyridoxine HCl (9), 0.1859 g TR): clearly visible suspension with precipitate
appearance of solution ([3]; 3 ml stock + salicylic acid (4), 0.1784 g TR): small amount of suspension and precipitate are visible in solution
appearance of solution ([3]; 3 ml stock + thiamine (5), 0.1808 g TR): small amount of suspension and precipitate are visible in solution
appearance and stability of composition ([4]; 0.2 g trans resveratrol, 0.12 g nicotinamide, 0.08 g ethyl vanillin, 0.06 g cinnamic acid in 3.5 ml stock): clear and flavored solution that became unstable after two weeks and precipitated

Compound: O=C(O)CCCC[C@@H]1SC[C@@H]2NC(=O)N[C@@H]21 [biotin]
increase in solubility [1]: comparable increases
solubility ([2]; organic solvent or mixture, thermodynamic from solid, stock/water/ethanol solvent): ~3 mg/mL
